# Measurements taken from the NIST ThermoML archive (doi:10.1016/j.jct.2016.11.019).
# Numbers after ± are expanded uncertainties.
# Assay: Molar enthalpy of transition or fusion
# Conditions: Crystal; DSC
smiles,measurement,value
Nc1cc(Cl)ccc1C(=O)O [2-amino-4-chlorobenzoic acid],Molar enthalpy of transition or fusion,28.8 ± 0.99 kJ/mol
